Laboratory results taken from US6812223B2, “Crystalline glucosamine sulfate metal salts and processes for preparing the same” (Nicholas Piramal India Limited, priority 2000, dated 2004).

Assay: Estimation of metal content in the mixed glucosamine sulphate metal salt (Inductively Coupled Plasma Method)
Format: physicochemical
Conditions: ICP; for Potassium content: measured at 766.491 nm; for Sodium content: measured at 589.592 nm
Procedure: Estimation of Metal Content in the Mixed Glucosamine Sulphate Metal Salt The sodium content in the mixed glucosamine sulphate sodium salt or the potassium content in the mixed glucosamine sulphate potassium salt respectively is estimated using Inductively Coupled Plasma Method. The sodium content was measured at 589.592 nm and the potassium content was measured at 766.491 nm. [table]

Row | Potassium content [%] | Potassium content (listed as compound I (M+K)) [%] | Sodium content [%] | Sodium content (listed as compound I (M=Na)) [%] | Substance
1 | 7.16 | 7.16 | – | – | Glucosamine Sulphate Potassium Salt (Low Potassium Content) [Example 2]
2 | – | – | 4.22 | 4.22 | Glucosamine Sulphate Sodium Salt (Low Sodium Content) [Example 1]
